Assays:
[1] = target: Cyclin-dependent kinase 1/G2/mitotic-specific cyclin-B (Marthasterias glacialis, UniProt P15206+Q9DGD3); assay: Kinase Inhibition Assay; details: pH 7.2; 30 °C
[2] = target: T1, Cyclin-dependent kinase 5 activator 1 [99-307] (Homo sapiens, UniProt Q00535); assay: Kinase Inhibition Assay; details: pH 7.2; 30 °C
T1 construct: 99-307
T1 sequence (Q15078 99-307): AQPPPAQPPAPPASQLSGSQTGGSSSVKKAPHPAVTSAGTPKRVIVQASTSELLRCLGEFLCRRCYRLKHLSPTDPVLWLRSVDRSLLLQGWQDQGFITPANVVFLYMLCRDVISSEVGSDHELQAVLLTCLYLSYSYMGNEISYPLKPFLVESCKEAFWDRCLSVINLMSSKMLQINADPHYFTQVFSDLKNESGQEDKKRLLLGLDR
T1 sequence (Q00535 whole entry): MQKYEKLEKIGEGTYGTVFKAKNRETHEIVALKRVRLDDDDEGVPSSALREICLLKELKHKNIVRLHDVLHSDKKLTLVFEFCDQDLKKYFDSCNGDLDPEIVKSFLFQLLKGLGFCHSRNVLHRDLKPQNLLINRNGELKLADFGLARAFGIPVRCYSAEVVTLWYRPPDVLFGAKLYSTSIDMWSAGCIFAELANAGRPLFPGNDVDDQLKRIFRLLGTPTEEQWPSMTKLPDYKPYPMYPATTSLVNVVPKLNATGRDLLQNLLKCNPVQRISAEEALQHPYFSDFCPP

Sequence of Cyclin-dependent kinase 1/G2/mitotic-specific cyclin-B (Q9DGD3 whole entry): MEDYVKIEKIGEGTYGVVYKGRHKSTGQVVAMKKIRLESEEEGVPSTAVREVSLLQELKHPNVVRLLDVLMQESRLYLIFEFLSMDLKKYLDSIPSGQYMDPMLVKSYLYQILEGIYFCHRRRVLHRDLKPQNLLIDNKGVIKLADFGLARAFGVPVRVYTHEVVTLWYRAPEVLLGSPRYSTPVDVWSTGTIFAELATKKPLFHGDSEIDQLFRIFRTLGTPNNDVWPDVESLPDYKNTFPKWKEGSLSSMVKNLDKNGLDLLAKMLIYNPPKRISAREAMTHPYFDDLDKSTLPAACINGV
Sequence of Cyclin-dependent kinase 1/G2/mitotic-specific cyclin-B (P15206 whole entry): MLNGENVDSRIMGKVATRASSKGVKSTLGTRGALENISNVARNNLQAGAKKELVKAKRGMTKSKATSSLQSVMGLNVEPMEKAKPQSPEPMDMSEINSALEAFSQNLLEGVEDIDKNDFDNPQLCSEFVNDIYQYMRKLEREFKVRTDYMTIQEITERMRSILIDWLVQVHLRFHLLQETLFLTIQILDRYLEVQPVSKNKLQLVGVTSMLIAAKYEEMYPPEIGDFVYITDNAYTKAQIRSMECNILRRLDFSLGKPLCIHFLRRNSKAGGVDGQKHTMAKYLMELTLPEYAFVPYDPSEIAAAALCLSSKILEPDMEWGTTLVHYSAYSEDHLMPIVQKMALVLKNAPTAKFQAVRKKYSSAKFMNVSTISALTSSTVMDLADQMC

Question: Which IC50 [1] does the source give for O=Nc1c(C2C(=O)Nc3ccc(I)cc32)[nH]c2ccccc12 (configuration not stated) [3-[(2Z,3E)-3-(hydroxyimino)-2,3-dihydro-1H-indol-2-ylidene]-5-iodo-2,3-dihydro-1H-indol-2-one] here?
Answer: 25 nM

Question: And the IC50 [2]?
Answer: 20 nM

— BindingDB's records for doi:10.1016/j.bmcl.2003.10.062 (Technische Universitat Braunschweig, 2004)
